Source: patent US8110703B2, “Retinoid derivative and pharmaceutical composition and use thereof” (Anhui Medical University, priority 2008, dated 2012)
Marks after values point to notes of the source that are not given here.

Columns and labels:
Assay type in all cases: cell-based
A549 cells [1] = assay: Cell cycle and apoptosis by flow cytometry, A549; details: A549, 10 μg/ml, 3 days; for Apoptosis Rate (%) / G0-G1 (%) / G2-M (%) / S %: PI flow cytometry
Experimental: 1.4 Detection of Cell Cycle and Apoptosis by Flow Cytometry A549 cells in the logarithmic phase are collected, regulated with the concentrations thereof to 8×10^7/L, inoculated in a 6-hole board, cultured in an incubator (37° C. and 5% CO2). After the cells are adhered, the culture solution is discarded, and a culture solution having drugs with the corresponding concentrations is added and divided into 10 μg/ml drug groups, 10 μg/ml fenretinide groups, cell control groups, solvent control groups (1‰ DMSO and anhydrous ethanol) (11 in total). After 3 days, each group of cells is normally digested, collected, blown into single cell suspension, washed by cold PBS twice, and re-suspend by 10 μl PBS. Fixing and member breaking agents and a PI staining solution are added according to the Coulter DNA detection kit and reacted with one another at the room temperature and out of light for 30 min for machine detection. Each sample detects 10000 cells and repeats for three times, and the data are analyzed by Analysis software for the ratio during the G0-G1, S and G2-M periods and the ratio of apoptotic cells.

HepG2 cells [2] = assay: AFP secretory volume of HepG2 cells; details: HepG2 cells, DMSO
NB4 cells = assay: Cell cycle analysis by flow cytometer, NB4; parameters: S %: dose or concentration left out as unconfirmed; details: 72 h
Experimental: Retinoic acid derivatives and fenretinide are prepared as a storage solution of 10 mg/mL by anhydrous ethanol and stored at […] and kept out of light.
NB4 cells and K562 cells are inoculated with an initial concentration of 2*10^5/ml in the RPMI1640 culture solution having 10% of calf serum (FBS), 100 u/ml of penicillin, 100 Lg/ml of streptomycin and 2 mmol/L of glutamine for suspension culture (37° C., 5% CO2). Change the solution every 2-3 days.
For the cells above acted by the retinoic acid derivatives and fenretinide ([…]) for 72 h, about 10^6 of them are collected, washed by PBS twice, fixed by 70% of cold ethanol over 24 h, washed by PBS twice, added with 5 ug/ml of propidium iodide for staining and detected by a flow cytometer from which the data are analyzed and processed by the multi-cycle software.

A549 cells [3] = assay: Differentiation index: CEA secretory volume of A549 cells; details: A549 culture supernatant, 10 ug/ml, 3 d
Experimental: 1.6 Detection of Differentiation Index The cultured A549 cells are randomly divided into 6 10 μg/ml drug groups, cell control groups, solvent control groups (DMSO and ethanol) and 10 μg/ml fenretinide control groups (11 in total). The control groups and drug groups are cultured for 3 days to collect respective 3 tubes of cell culture solutions which are centrifugated at a speed of 4000 r/min for 5 min to take the supernatant and detect the CEA content of the kit by using enzyme kinetics and CEA detection.

liver cancer HepG2 cells = assay: MTT cell growth and proliferation experiment, HepG2; parameters: key to Inhibition Rate: (control OD570 − test OD570)/control OD570, as fraction; details: for Inhibition Rate: fraction
Experimental: 1.1 Reagents 12 retinoic acid derivatives with the final concentrations of 1 ug/ml, 5 ug/ml and 10 ug/ml are synthesized by the Pharmaceutical College of Anhui Medical University using DMSO and anhydrous ethanol, separately packaged for storage at −20° C. and kept out of the light when used, and the final concentration of DMSO is less than 0.1%. MTT is purchased from Sigma Corp. The Coulter DNA detection kit is presented by the Central Lab of Anhui Provincial Hospital. AFP and γ-GT are provided by the Clinical Lab of No. 105 Hospital of PLA. Apoptosis-Hoechst staining kit is purchased from Beyotime Company.
1.2 Cell Culture A549, and HpeG2 cells are stored by our lab. Cell growth condition: DMEM (from GIBICO Company) culture solution is added with 10% of calf serum (purchased from the Hangzhou Sijiqing Biological Engineering Material Co., Ltd.) to culture in a cell culture incubator (37° C., 5% CO2) with saturated humidity.
1.3 Cell Growth and Proliferation Experiments MTT process is used. Cells in the logarithmic phase are picked and seeded on a 96-hole culture board with a cell concentration of 5×10^7/L. Each hole of the board is 200 ul. The next day after the adherence, the original solution is discarded, and the culture solution is added. The cells are divided into 1 ug/ml retinoic acid derivative groups, 5 ug/ml retinoic acid derivative groups, 10 ug/ml retinoic acid derivative groups, blank control groups, cell control groups, solvent control groups (1‰ DMSO and anhydrous ethanol) (17 in total) according to the concentrations thereof, incubated for 3d, added with MTT (5 g/L) of 20 ul/hole for incubation at 37° C. for 4 h. The original solution is carefully discarded and dried, and DMSO of 20 ul/hole is added to dissolve crystals, followed by vibrating for 10 min and determining the OD value at 570 nm. Each concentration is corresponding to 5 holes, and each group calculates the average of 3 experiments to calculate the inhibition rate to the cell growth according to the optical density (OD) average of each hole in each group and the following equation: inhibition rate %=(control hole OD570−experimental hole OD570)/control hole OD5700*100%. The process above is repeated for three times. The second experiment takes the maximum concentration (10 […]) for culture respectively for 1, 2, 3 and 7 days and repeat for three times.

HepG2 cells [4] = assay: Cell cycle and apoptosis by flow cytometry, HepG2; details: HepG2, flow cytometry
HepG2 cells [5] = assay: γ-GT specific activity of HepG2 cells; details: DMSO
[6] = HepG2, MTT OD 570 nm, 1 ug/ml, 3 d, solvent not given
[7] = HepG2, MTT OD 570 nm, 5 ug/ml, 3 d, solvent not given
[8] = HepG2, MTT OD 570 nm, 10 ug/ml, 3 d, solvent not given
[9] = HepG2, MTT time gradient, 10 ug/ml, 1 d
[10] = HepG2, MTT time gradient, 10 ug/ml, 2 d
[11] = HepG2, MTT time gradient, 10 ug/ml, 3 d
[12] = HepG2, MTT time gradient, 10 ug/ml, 7 d
[13] = HepG2, MTT, 1 ug/ml, 3 d, solvent not given
[14] = HepG2, MTT, 5 ug/ml, 3 d, solvent not given
[15] = HepG2, MTT, 10 ug/ml, 3 d, solvent not given
[16] = HepG2, Table 5 repeat MTT, 10 ug/ml, 3 days, DMSO

SMILES	Apoptosis Rate (%) (A549 cells [1])	G0-G1 (%) (A549 cells [1])	G2-M (%) (A549 cells [1])	S % (A549 cells [1]) [%]	AFP (HepG2 cells [2]) [µg/L]	G1 % (NB4 cells) [%]	G2 % (NB4 cells) [%]	S % (NB4 cells) [%]	OD Value (x ± s) (liver cancer HepG2 cells; [6])	OD Value (x ± s) (liver cancer HepG2 cells; [7])	OD Value (x ± s) (liver cancer HepG2 cells; [8])	OD Value (x ± s) (liver cancer HepG2 cells; [9])	Inhibition Rate (liver cancer HepG2 cells; [9])	OD Value (x ± s) (liver cancer HepG2 cells; [10])	Inhibition Rate (liver cancer HepG2 cells; [10])	OD Value (x ± s) (liver cancer HepG2 cells; [11])	Inhibition Rate (liver cancer HepG2 cells; [11])	OD Value (x ± s) (liver cancer HepG2 cells; [12])	Inhibition Rate (liver cancer HepG2 cells; [12])	Inhibition Rate (liver cancer HepG2 cells; [13])	further results
CC1=C(/C=C/C(C)=C/C=C/C(C)=C/C(=O)Oc2ccccc2C(F)(F)F)C(C)(C)CCC1 [Example 2a-03, (2-trifluoromethylphenyl)-(all-trans)-3,7-dimethyl-9-(2,6,6-trimethyl-1-cyclohexen-1-yl)-2,4,6,8-nonatetraenoate]	28.9	45.7	1.01	25.8	14.7	65.72	5.54	28.74	1.32 ± 0.50	1.32 ± 0.56	0.98 ± 0.19	1.61 ± 0.14	0.07	1.55 ± 0.09	0.08	1.24 ± 0.09	0.09	0.79 ± 0.08	0.36	0.22	CEA (A549 cells [3]; ethanol): 3.9 µg/L; Inhibition Rate (liver cancer HepG2 cells; [14]): 0.23; Inhibition Rate (liver cancer HepG2 cells; [15]): 0.42; OD Value (x ± s) (liver cancer HepG2 cells; [16]): 1.847 ± 0.091; Inhibition Rate (liver cancer HepG2 cells; [16]): 0.468*; Apoptosis Rate (%) (HepG2 cells [4]): 16.3* %; G0-G1 (%) (HepG2 cells [4]): 57.3%; G2-M (%) (HepG2 cells [4]): 3.40%; S % (HepG2 cells [4]): 25.5%; γ-GT (HepG2 cells [5]): 60.6 ± 0.5 U/L
CC1=C(/C=C/C(C)=C/C=C/C(C)=C/C(=O)Nc2cccc(C(F)(F)F)c2)C(C)(C)CCC1 [Example 3a-02, (3-trifluoromethylphenyl)-(all-trans)-3,7-dimethyl-9-(2,6,6-trimethyl-1-cyclohexen-1-yl)-2,4,6,8-nonatetraenoic acid amide]	40.9	35.1	1.62	23.6	15.6	45.83	2.87	51.30	1.19 ± 0.50	0.92 ± 0.27	0.94 ± 0.41	1.43 ± 0.07	0.17	0.81 ± 0.12	0.52	0.55 ± 0.03	0.55	0.32 ± 0.12	0.76	0.30	effect on the apoptosis of A549 cells (ranking in words) (A549 cells [1]): most greatly effects on the apoptosis of A549 cells; CEA (A549 cells [3]; DMSO): 2.8 µg/L; Inhibition Rate (liver cancer HepG2 cells; [14]): 0.45; Inhibition Rate (liver cancer HepG2 cells; [15]): 0.45; OD Value (x ± s) (liver cancer HepG2 cells; [16]): 1.331 ± 0.067; Inhibition Rate (liver cancer HepG2 cells; [16]): 0.385*; Apoptosis Rate (%) (HepG2 cells [4]): 30.2* %; G0-G1 (%) (HepG2 cells [4]): 40.3%; G2-M (%) (HepG2 cells [4]): 2.71%; S % (HepG2 cells [4]): 27.9%; γ-GT (HepG2 cells [5]): 35.6 ± 1.0 U/L
